# According to PMC6385122, “Design and Synthesis of Arylamidine Derivatives as Serotonin/Norepinephrine Dual Reuptake Inhibitors” (Molecules, 2019):
# Where a name gives a salt, the structure may show the parent alone.
# What was measured:
# [1] = molecular target: T1, NE reuptake (NE transporter) (Rattus norvegicus, UniProt Q63380); experiment: Inhibition of NE reuptake in rat brain synaptosome (3H-NE uptake); type: biochemical
# T1 construct: from tissue; host or cells: Wistar rat brain (procerebrum; crude synaptosomal supernatant)
# Protocol: (§1) All the target compounds were evaluated for their inhibitory activity against the reuptake of 5-HT and NE at the cellular level. Rat brain tissue was used for the uptake test, which included ^3H-5-HT and ^3H-NE [15]. 1-[7,8-^3H]-Noradrenaline and 5-hydroxy-[^3H]-tryptamine trifluoroacetate were obtained from Amersham Corporation.
# (§2) Adult male Wistar rats were used. Animals were killed by decapitation and the whole brain, with the exception of the brainstem and cerebellum, was quickly removed. The procerebrum region was prepared, weighed, and homogenized in 10 volumes of ice-cold 0.32 mol/L sucrose solution using a glass homogenizer. The homogenate was centrifuged at 1000× g and 4 °C for 10 min. The supernatant was decanted and used for the uptake experiments. […] For each assay, three tubes were incubated with the vehicle (20 µL) at 0 °C in an ice bath. After incubation, the tubes were immediately filtered with a cell harvester. The fiberglass filter membrane was washed three times with ice-cold saline, placed in a scintillation vial, and counted in liquid scintillation cocktail (4 mL). Active uptake was the difference between the counts per minute at 37 and 0 °C. The percent inhibition at each drug concentration was the mean of three measurements.
# [2] = Preliminary acute toxicity test in mice; type: in vivo; conditions: male, ICR, mouse, in vivo; mice, PO, 20 h
# Protocol: (§3) In the assay, rats are suspended by tail and the time that the animal is immobile is recorded. The compounds were administered to male rats at a dose of 30 mg/kg (PO).
# (§4) Male ICR mice (20–25 g) were used from Institute of Materia Medica, Chinese Academy of Medical Sciences, Beijing, China. Mice were randomly divided into two groups with six mice each. Mice were orally given II-5 with a single dose 200 and 400 mg/kg or vehicle control, respectively. The mouse death was monitored for 20 h after treatment.
# [3] = test system: mice; experiment: Preliminary acute toxicity test in mice; type: in vivo; conditions: male ICR mice, n = 6
# Protocol: as §3, §4
# [4] = molecular target: T2, 5-HT reuptake (5-HT transporter) (Rattus norvegicus, UniProt P31652); experiment: Inhibition of 5-HT reuptake in rat brain synaptosome (3H-5-HT uptake); type: biochemical
# T2 construct: from tissue; host or cells: Wistar rat brain (procerebrum; crude synaptosomal supernatant)
# Protocol: as §1, §2
# [5] = test system: rats; experiment: Tail suspension test (TST) in rats; type: in vivo, rat; conditions: male rats, 30 mg/kg PO
# Protocol: Based on the in vitro results, compounds I-19, II-4, and II-5 were selected for the tail suspension test (TST) in rats. The TST has been used widely as a preclinical model for screening antidepressant activity, and it is sensitive to commercially available antidepressant drugs. In the assay, rats are suspended by tail and the time that the animal is immobile is recorded. The compounds were administered to male rats at a dose of 30 mg/kg (PO). […] In addition, the safety profile of compound II-5 was also explored with a preliminary acute toxicity test in mice at a single dose of 200 or 400 mg/kg (PO) (n = 6).
# For two days before the formal experiment, the rats in each group were given doses orally once a day in the morning and in the afternoon. The rats were given doses orally once in each group in the formal experiment. After 60 min of administration, the rats were suspended head-down more than 50 cm from the ground with a 12-cm-long piece of insulating tape at a distance of 1 cm from the tail tip. The distance between adjacent rats was 15 cm. The immobility time of the rats was recorded. The rate of change in the immobility time of the rats in the test drug group and the positive control group was calculated and compared with the negative control group. Statistical analysis was performed using Prism 7.0 (GraphPad Software, San Diego, CA, USA).
# T2 sequence (P31652 whole entry): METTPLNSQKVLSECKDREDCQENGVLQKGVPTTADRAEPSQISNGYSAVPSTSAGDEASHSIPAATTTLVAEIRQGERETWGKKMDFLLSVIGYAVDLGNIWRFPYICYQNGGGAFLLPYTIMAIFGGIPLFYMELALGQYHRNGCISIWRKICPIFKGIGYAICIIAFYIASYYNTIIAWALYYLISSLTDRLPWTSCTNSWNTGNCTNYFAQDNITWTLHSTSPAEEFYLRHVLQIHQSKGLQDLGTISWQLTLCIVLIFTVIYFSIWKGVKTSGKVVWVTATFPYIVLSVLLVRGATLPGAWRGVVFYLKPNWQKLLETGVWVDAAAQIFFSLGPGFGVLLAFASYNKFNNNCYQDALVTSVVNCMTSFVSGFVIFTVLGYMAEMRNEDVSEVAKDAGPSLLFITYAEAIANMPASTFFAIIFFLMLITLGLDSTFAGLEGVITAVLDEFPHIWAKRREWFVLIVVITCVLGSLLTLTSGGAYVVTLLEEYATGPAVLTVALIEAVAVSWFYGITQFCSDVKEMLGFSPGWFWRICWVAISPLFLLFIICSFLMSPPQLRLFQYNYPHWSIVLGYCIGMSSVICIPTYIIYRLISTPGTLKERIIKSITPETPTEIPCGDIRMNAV
# T1 sequence (Q63380 1-617): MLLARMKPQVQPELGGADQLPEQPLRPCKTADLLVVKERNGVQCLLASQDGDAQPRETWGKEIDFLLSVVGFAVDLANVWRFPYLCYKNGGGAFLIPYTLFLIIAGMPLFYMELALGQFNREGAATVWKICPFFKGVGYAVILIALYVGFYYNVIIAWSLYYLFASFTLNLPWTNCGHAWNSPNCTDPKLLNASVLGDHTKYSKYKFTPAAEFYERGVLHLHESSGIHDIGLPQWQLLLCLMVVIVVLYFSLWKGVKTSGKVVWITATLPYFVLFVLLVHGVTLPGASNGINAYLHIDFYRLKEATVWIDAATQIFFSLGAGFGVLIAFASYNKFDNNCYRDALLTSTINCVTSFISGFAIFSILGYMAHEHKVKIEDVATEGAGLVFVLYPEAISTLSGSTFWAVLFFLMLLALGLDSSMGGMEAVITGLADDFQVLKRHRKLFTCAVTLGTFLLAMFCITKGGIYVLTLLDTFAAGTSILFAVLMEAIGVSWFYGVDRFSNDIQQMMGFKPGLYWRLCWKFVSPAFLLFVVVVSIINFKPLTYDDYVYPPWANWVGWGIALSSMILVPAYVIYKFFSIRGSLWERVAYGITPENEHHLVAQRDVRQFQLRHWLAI
structure (smiles),measurement,setting,value
"Clc1ccccc1/C(=N\Cc1cccc2ccccc12)N1CCNCC1 [II-5, (E)-N-((2-Chlorophenyl)(piperazin-1-yl)methylene)-1-(naphthalen-1-yl)methanaminehydrochloride]",IC50,[1],10 nM
same,inhibition at 10 µM,"[1]; 10 μM, read-out: NE reuptake percent inhibition",92%
same,LD50 at 20 h,[2],> 400 mg/kg
same,Survival at 20 h,[3]; single dose 200 mg/kg PO,100%
same,Survival at 20 h,[3]; single dose 400 mg/kg PO,100%
same,IC50,[4],620 nM
same,inhibition at 10 µM,"[4]; 10 μM, read-out: 5-HT reuptake percent inhibition",81%
same,Immobility Time,[5]; 60 min after administration,18 ± 7 s
same,Rate of Shorten Time (%),[5]; compared with the negative control group,67.8%
